Consider eight molecules from PMC6255099, “Amides from Piper capense with CNS Activity – A Preliminary SAR Analysis” (Molecules, 2009).

Assay [1] addresses benzodiazepine site on the GABAA receptor. Description: [3H]-flumazenil binding assay (GABA-benzodiazepine binding assay). Details: species or system rat. As to conditions: for Ki: as worded in text b6; for IC50: rat brain cortex, 0.5 nM [3H]-flumazenil, mean ± standard error, n.d. = not detected in tested concentrations below 10 mM; for affinity for the benzodiazepine site (in words): [3H]-flumazenil binding assay. The method, then:
(§1) The GABA binding assay was carried out according to a previously published method, with modifications. To a suspension of rat brain cortex (500 µL) was added test solution (25 µL) and [^3H]-flumazenil (25 µL, Ro 15-1788, Perkin-Elmer Life Science) to 0.5 nM final concentration in the assay. The suspension was mixed and incubated for 40 min on ice and poured directly onto glass fiber filters (Adventic, GC-50) under suction, in an ice-bath, followed by washing with ice-cold Tris-citrate buffer. The amount of radioactivity was determined by liquid scintillation counting. Non-specific binding was determined using diazepam (1 µM final concentration in the assay) and flumazenil was used as positive control. Specific binding was calculated as total binding minus non-specific binding. All experiments were done in triplicate. The serotonin re-uptake inhibition assay was performed according to previously described methods.

The target of assay [2] is serotonin re-uptake transport protein (Rattus norvegicus, UniProt P31652). In words: [3H]-citalopram binding assay (serotonin re-uptake inhibition assay). How it is done:
as §1

For the next assay, the system named is MES seizures in mice. Details: method as in doi:10.1016/S0165-7208(06)80055-3. As to conditions: cited from earlier work.
A further assay concerns GABAA receptor. Details: method as in PMID 1332016. As to conditions: cited from earlier work.
[3] abbreviates: mean ± standard error, n.d. = not detected in tested concentrations below 10 mM, read-out: [3H]-citalopram binding assay IC50.
[4] abbreviates: read-out: Ki, serotonin re-uptake transport protein.

Where “and” joins values, the source holds several entries; their conditions need not be identical. Equal entries are not always repeated. Where two headings read alike, the source gives them in different places.

Sequence of serotonin re-uptake transport protein (P31652 whole entry): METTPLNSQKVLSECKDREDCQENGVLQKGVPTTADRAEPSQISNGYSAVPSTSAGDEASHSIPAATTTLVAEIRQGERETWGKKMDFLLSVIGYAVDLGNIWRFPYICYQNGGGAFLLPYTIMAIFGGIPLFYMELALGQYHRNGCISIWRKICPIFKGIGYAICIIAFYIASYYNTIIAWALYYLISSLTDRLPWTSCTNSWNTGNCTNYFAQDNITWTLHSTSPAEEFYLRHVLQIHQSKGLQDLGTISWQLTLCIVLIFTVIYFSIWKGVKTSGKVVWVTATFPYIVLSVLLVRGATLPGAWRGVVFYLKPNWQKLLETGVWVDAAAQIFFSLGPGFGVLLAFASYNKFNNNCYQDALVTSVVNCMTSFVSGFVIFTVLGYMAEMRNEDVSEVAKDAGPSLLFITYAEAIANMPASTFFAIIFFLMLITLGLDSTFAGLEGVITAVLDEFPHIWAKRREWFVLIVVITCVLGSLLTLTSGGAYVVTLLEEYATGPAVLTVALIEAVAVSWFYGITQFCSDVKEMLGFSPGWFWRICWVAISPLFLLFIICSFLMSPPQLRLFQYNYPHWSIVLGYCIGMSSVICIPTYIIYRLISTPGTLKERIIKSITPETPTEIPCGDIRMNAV

Regarding `O=C(/C=C/C=C/c1ccc2c(c1)OCO2)N1CCCCC1` [Compound 1, Piperine], in assay [1], the Ki stood at 1175 ± 3 µM; the IC50 is 1200 µM and 1180 µM.

As to `O=C(/C=C/CCc1ccc2c(c1)OCO2)N1CCCCC1` [Compound 2, 4,5-Dihydropiperine], the IC50 in assay [2] (setting [3]) was 2980 ± 1630 µM; in assay [2] (setting [4]), 2980 ± 1630 µM; in assay [1], 1000 µM and 1050 µM. In assay [1], this molecule had an inhibition constant Ki of 1054 ± 4 µM.

For the molecule `O=C(CCCCc1ccc2c(c1)OCO2)N1CCCCC1` [Compound 4, Tetrahydropiperidine], the IC50 in assay [2] (setting [3]) turned out to be 585 ± 1520 µM.

Take `O=C(/C=C/c1ccc2c(c1)OCO2)N1CCCCC1` [Compound 5, Antiepilepsirine]: the “affinity for the benzodiazepine site (in words)” value (from here on “affinity”) in assay [1] was “no affinity”.

On to `O=C(CCc1ccc2c(c1)OCO2)N1CCCCC1` [Compound 6, 3-Benzo[1,3]dioxol-5-yl-1-piperidin-1-yl-propan-1-one], for which the “affinity” value in assay [1] is “lack of affinity”. The “protection against MES induced seizures” value with MES seizures in mice was “protection”.

Consider `O=C(/C=C/CCc1cc2c(cc1Cl)OCO2)N1CCCCC1` [Compound 8, trans-5-(6-Chlorobenzo[1,3]dioxol-5-yl)-1-(piperidin-1-yl)pent-2-en-1-one], for which the IC50 in assay [2] (setting [3]) and in assay [2] (setting [4]) was 2690 ± 1390 µM throughout.

As for `CC(C)NC(=O)CCc1ccc2c(c1)OCO2` [Compound 10, 3-Benzo[1,3]dioxol-5-yl-N-isopropyl-propionamide], the “affinity” value in assay [1] is on record as “lack of affinity”. The “protection against MES induced seizures” value with MES seizures in mice is on record as “protection”.

As for `COC1=CC(=O)O[C@@H](/C=C/c2ccc3c(c2)OCO3)C1` [methysticin, Methysticin], the “association of GABAA receptor activation with the benzodiazepine binding site” value in the assay on GABAA receptor is recorded as “not to be associated with the benzodiazepine binding site”.
